Experiments:
Format in all cases: physicochemical
Bulk stability (1 week) = experiment: Bulk stability (1 week); design: key to CL (color): A: No change of color; B: Slight discoloration; C: Medium discoloration; D: Strong discoloration; DC: complete decomposition; settings: for CL (color) / Bulk (HPLC) chiral purity / Bulk (HPLC) purity / Bulk (XRPD): Solid state, 1 week
Protocol: Bulk stability of I-1 Form A and the 2 salt candidates was investigated at 25° C./92% RH in an open container, at 40° C./75% RH in an open container and at 60° C. in a tight container over 1 week. […] All the 3 salts show no obvious racemization based on chiral purity results.
I-1 Form A and the 2 salts were placed at 25° C./92% RH in an open container, at 40° C./75% RH in an open container and at 60° C. in a closed container for I week. Samples after I week were characterized by XRPD and HPLC and inspected for color change.

Hygroscopicity by DVS = settings: for 1st Desorp. (%) / 1st Sorp. (%) / 2nd Desorp. (%) / 2nd Sorp. (%): DVS 25° C.
Protocol: • Method 1 (for I-1 Form A and I-3 Form A) • Instrument Intrinsic, Advantage or Adventure • Total gas flow 200 sccm • Oven temperature 25° C. • Solvent Water • Method Cycle: 40-0-95-0-40% RH • Stage Step: 10% • Equilibrium: 0.002 dm/dt (%/min) • Minimum dm/dt stability duration: 60 min • Maximum dm/dt stage time: 360 min • Method 2 (for I-4 Form A) • Instrument Intrinsic, Advantage or Adventure • Total gas flow 200 sccm • Oven temperature 25° C. • Solvent Water • Method Cycle: 40-95-0-95-40% RH • Stage Step: 10% • Equilibrium: 0.002 dm/dt (%/min) • Minimum dm/dt stability duration: 60 min • Maximum dm/dt stage time: 360 min
I-1 Form A is hygroscopic. It absorbs about 5.5% water by weight from 40% RH to 95% RH. […] It absorbs about 40% water by weight from 40% RH to 95% RH. Form changed after the DVS test. […] It starts to absorb water when RH>40% and potential hydrate form generates at high humidity based on DVS data. The sorption and desorption are reversible.
Water sorption and desorption behavior of I-1 Form A, I-3 Form A, and I-4 Form A was investigated by DVS at 25° C. with a cycle of 40-0-95-0-40% RH, dm/dt 0.002, min. equilibration time 60 min and max. equilibration time 360 min. XRPD was measured after the DVS test to determine form change.

[1] = Salt screening (XRPD, chiral purity of hits)
In short: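 About 50 mg of I-1 Form A is stirred with 1.0 equivalent of counter ion in MeOH, acetone or IPAc at 50 °C for 2 h, then at 25 °C for at least 12 h. The screen covers 23 counter ions/coformers in about 70 experiments, using slurry, slow evaporation or anti-solvent addition. Solids are centrifuged off and analysed by XRPD.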

[2] = Salt candidates risk matrix (summary)
[3] = 25° C./92% RH, open container, listed as I-1 Form A
[4] = 40° C./75% RH, open container, listed as I-1 Form A
[5] = 60° C., tight container, listed as I-1 Form A
[6] = before storage, listed as I-1 Form A

## N#Cc1c(-c2cc(NC(=O)c3cc(F)cc(C(F)(F)F)c3)c3c(c2)C(=O)N[C@H]3c2cc(F)ccc2Cl)ccc2ncnn12 [Compound I-1, (R)-N-(3-(2-chloro-5-fluorophenyl)-6-(5-cyano-[1,2,4]triazolo[1,5-a]pyridin-6-yl)-1-oxoisoindolin-4-yl)-3-fluoro-5-(trifluoromethyl)benzamide]
Bulk stability (1 week); [2]
  Chemical stability: Stable
  Physical stability: Stable
Bulk stability (1 week); 25° C./92% RH, open container
  CL (color): A
Bulk stability (1 week); [3]
  Bulk (HPLC) chiral purity: 98.9%
  Bulk (HPLC) purity: 99.0%/
  Bulk (XRPD): No form change
Bulk stability (1 week); 40° C./75% RH, open container
  CL (color): A
Bulk stability (1 week); [4]
  Bulk (HPLC) chiral purity: 98.9%
  Bulk (HPLC) purity: 99.0%/
  Bulk (XRPD): No form change
Bulk stability (1 week); 60° C., tight container
  Bulk (XRPD): No form change
  CL (color): A
Bulk stability (1 week); [5]
  Bulk (HPLC) chiral purity: 98.9%
  Bulk (HPLC) purity: 99.0%/
Bulk stability (1 week); [6]
  Chiral purity (initial): 99.0%
  Initial purity by HPLC: 99.0%
Hygroscopicity by DVS; 0% RH, listed as I-1 Form A
  1st Desorp. (%): 0.17%
  1st Sorp. (%): 0.17%
  2nd Desorp. (%): 0.001%
  2nd Sorp. (%): 0.001%
Hygroscopicity by DVS; 10% RH
  2nd Desorp. (%): 0.11%
Hygroscopicity by DVS; 10% RH, listed as I-1 Form A
  1st Desorp. (%): 0.25%
  1st Sorp. (%): 0.23%
  2nd Sorp. (%): 0.08%
Hygroscopicity by DVS; 20% RH, listed as I-1 Form A
  1st Desorp. (%): 0.33%
  1st Sorp. (%): 0.29%
  2nd Desorp. (%): 0.21%
  2nd Sorp. (%): 0.15%
Hygroscopicity by DVS; 30% RH, listed as I-1 Form A
  1st Desorp. (%): 0.42%
  1st Sorp. (%): 0.35%
  2nd Desorp. (%): 0.33%
  2nd Sorp. (%): 0.22%
Hygroscopicity by DVS; 40% RH, listed as I-1 Form A
  1st Desorp. (%): 0.52%
  1st Sorp. (%): 0.42%
  2nd Desorp. (%): 0.51%
  2nd Sorp. (%): 0.32%
Hygroscopicity by DVS; 50% RH, listed as I-1 Form A
  1st Sorp. (%): 0.54%
  2nd Desorp. (%): 0.92%
Hygroscopicity by DVS; 60% RH, listed as I-1 Form A
  1st Sorp. (%): 0.71%
  2nd Desorp. (%): 1.30%
Hygroscopicity by DVS; 70% RH, listed as I-1 Form A
  1st Sorp. (%): 1.02%
  2nd Desorp. (%): 1.62%
Hygroscopicity by DVS; 80% RH, listed as I-1 Form A
  1st Sorp. (%): 1.84%
  2nd Desorp. (%): 2.15%
Hygroscopicity by DVS; 90% RH, listed as I-1 Form A
  1st Sorp. (%): 3.24%
  2nd Desorp. (%): 3.56%
Hygroscopicity by DVS; 95% RH, listed as I-1 Form A
  1st Sorp. (%): 5.90%
  2nd Desorp. (%): 5.90%
Hygroscopicity by DVS; DVS at 25° C., listed as I-1 Form A
  hygroscopicity: hygroscopic
Hygroscopicity by DVS; from 40% RH to 95% RH, 25° C., listed as I-1 Form A
  water absorbed: about 5.5 % water by weight
Hygroscopicity by DVS; listed as I-1 Form A
  form after the DVS test (XRPD): no form and crystallinity change
[1]; 1.0 equiv. HCl, Isopropyl acetate (second block of table)
  Salt screening result (slurry crystallization): clear solution
[1]; 1.0 equiv. HCl, MeOH
  Salt screening result (slurry crystallization): − (I-1 Form A) (Free form, counter ions, or physical mixtures)
[1]; 1.0 equiv. Hydrobromic acid, Acetone
  Salt screening result (slurry crystallization): thin suspension
[1]; 1.0 equiv. Hydrobromic acid, Acetone/MTBE
  Salt screening result (anti-solvent): thin suspension
[1]; 1.0 equiv. Hydrobromic acid, IPAc/MTBE
  Salt screening result (anti-solvent): thin suspension
[1]; 1.0 equiv. Hydrobromic acid, Isopropyl acetate
  Salt screening result (slurry crystallization): clear solution
[1]; 1.0 equiv. Hydrobromic acid, MeOH
  Salt screening result (slurry crystallization): − (I-1 Form A) (Free form, counter ions, or physical mixtures)
[1]; 1.0 equiv. L-aspartic acid, Acetone
  Salt screening result (slurry crystallization): − (physical mixtures (Free form, counter ions, or physical mixtures)
[1]; 1.0 equiv. L-aspartic acid, Isopropyl acetate
  Salt screening result (slurry crystallization): − (physical mixtures (Free form, counter ions, or physical mixtures)
[1]; 1.0 equiv. L-aspartic acid, MeOH
  Salt screening result (slurry crystallization): − (physical mixtures (Free form, counter ions, or physical mixtures)
[1]; 1.0 equiv. L-glutamic acid, Acetone
  Salt screening result (slurry crystallization): − (physical mixtures (Free form, counter ions, or physical mixtures)
[1]; 1.0 equiv. L-glutamic acid, Isopropyl acetate
  Salt screening result (slurry crystallization): − (physical mixtures (Free form, counter ions, or physical mixtures)
[1]; 1.0 equiv. L-glutamic acid, MeOH
  Salt screening result (slurry crystallization): − (physical mixtures (Free form, counter ions, or physical mixtures)
[1]; 1.0 equiv. L-malic acid, Acetone
  Salt screening result (slurry crystallization): thin suspension
[1]; 1.0 equiv. L-malic acid, Acetone/MTBE
  Salt screening result (anti-solvent): −(I-1 Form B) (Free form, counter ions, or physical mixtures)
[1]; 1.0 equiv. L-malic acid, Isopropyl acetate
  Salt screening result (slurry crystallization): − (I-1 Form A) (Free form, counter ions, or physical mixtures)
[1]; 1.0 equiv. L-malic acid, MeOH
  Salt screening result (slurry crystallization): − (I-1 Form A) (Free form, counter ions, or physical mixtures)
